Data on two compounds can be found in article PMC6193555 (Nutrition and cancer, 2017).

In one experiment the target is c-Met (Homo sapiens, UniProt P08581). Briefly: Z'-LYTE cell-free kinase assay, positive control. It counts as biochemical.
A further experiment has as its target c-Met (M1250T) (Homo sapiens, UniProt P08581, M1250T). The experiment can be described thus: Z'-LYTE cell-free kinase assay. It is filed as biochemical.

Chain of c-Met (M1250T) (P08581 956-1390 M1250T limits assumed): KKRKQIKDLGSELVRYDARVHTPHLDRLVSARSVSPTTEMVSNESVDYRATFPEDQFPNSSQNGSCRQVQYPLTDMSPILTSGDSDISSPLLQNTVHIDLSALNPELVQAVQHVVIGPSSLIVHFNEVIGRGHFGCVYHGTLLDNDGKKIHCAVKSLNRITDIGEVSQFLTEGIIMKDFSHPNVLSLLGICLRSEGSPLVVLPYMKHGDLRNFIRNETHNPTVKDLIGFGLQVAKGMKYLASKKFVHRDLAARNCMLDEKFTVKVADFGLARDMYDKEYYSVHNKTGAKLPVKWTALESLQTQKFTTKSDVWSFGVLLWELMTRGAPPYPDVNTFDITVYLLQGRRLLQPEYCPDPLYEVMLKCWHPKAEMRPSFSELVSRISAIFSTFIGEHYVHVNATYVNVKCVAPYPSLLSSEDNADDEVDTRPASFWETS
Chain of c-Met (P08581 25-307): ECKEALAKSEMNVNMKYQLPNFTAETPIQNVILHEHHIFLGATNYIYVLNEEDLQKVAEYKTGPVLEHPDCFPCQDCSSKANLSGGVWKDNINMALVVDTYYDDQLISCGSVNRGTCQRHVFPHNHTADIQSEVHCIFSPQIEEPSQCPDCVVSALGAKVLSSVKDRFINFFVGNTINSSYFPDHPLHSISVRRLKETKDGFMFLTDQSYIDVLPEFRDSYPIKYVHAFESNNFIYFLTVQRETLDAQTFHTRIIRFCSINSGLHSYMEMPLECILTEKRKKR
Chain of c-Met (P08581 308-1390): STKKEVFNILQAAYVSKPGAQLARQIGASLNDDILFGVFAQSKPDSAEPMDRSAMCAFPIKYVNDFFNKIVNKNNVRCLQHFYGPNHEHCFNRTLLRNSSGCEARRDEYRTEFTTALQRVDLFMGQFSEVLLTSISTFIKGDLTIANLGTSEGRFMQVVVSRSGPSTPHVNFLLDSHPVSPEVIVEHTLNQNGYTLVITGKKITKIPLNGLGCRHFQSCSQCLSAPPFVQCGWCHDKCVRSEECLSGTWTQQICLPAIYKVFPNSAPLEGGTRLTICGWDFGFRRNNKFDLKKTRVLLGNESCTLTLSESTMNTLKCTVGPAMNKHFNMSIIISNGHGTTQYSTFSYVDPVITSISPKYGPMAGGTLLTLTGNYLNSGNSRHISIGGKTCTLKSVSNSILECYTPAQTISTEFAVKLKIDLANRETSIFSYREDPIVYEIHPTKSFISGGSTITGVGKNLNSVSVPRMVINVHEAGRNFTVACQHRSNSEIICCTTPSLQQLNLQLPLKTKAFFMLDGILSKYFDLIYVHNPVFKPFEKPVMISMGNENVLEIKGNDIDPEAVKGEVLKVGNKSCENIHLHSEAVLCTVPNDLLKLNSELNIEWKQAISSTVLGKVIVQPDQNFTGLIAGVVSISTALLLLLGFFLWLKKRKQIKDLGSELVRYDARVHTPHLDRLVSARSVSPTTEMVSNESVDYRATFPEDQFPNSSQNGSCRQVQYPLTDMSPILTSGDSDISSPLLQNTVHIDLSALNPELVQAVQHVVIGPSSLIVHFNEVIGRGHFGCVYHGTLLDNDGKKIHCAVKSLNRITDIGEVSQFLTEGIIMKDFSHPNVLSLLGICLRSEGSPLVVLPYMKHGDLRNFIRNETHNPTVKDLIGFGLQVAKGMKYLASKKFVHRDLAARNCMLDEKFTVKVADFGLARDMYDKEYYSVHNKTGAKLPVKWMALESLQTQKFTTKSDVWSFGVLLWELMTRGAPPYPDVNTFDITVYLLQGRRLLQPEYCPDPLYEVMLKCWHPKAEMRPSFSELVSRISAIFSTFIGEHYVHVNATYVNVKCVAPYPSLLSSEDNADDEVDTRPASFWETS

Regarding `C/C=C(/C=O)[C@@H](CC=O)CC(=O)OCCc1ccc(O)cc1` [(–)-oleocanthal], the “Z'-LYTE cell-free kinase assay, positive control” value on c-Met is reported as “(–)-oleocanthal was utilized as a positive control in Z'-LYTE cell free assay as a documented c-Met inhibitory phenolic”. As to `C[C@@H]1O[C@@H](OC[C@H]2O[C@@H](Oc3c(-c4ccc(O)c(O)c4)oc4cc(O)cc(O)c4c3=O)[C@H](O)[C@@H](O)[C@@H]2O)[C@H](O)[C@H](O)[C@H]1O` [compound 6, quercetin 3-O-[α-L-^1C4-rhamnopyranosyl 1'”→6” β-D-^4C1-glucopyranoside]], the IC50 (as a rule, the midpoint of a concentration-inhibition curve) on c-Met (M1250T) was found to be 8.5 µM. That is a single-digit micromolar value.
